Reference: US5518737A, “Peroral drug delivery system” (priority 1991, dated 1996)
Structures can show the parent of a compound that is named as a salt. Where two headings read alike, the source gives them in different places.

Legend:
[1] = Dissolution rate of propranolol hydrochloride by rotating disc method; type: physicochemical; conditions: 34° C., 550 mOsm, μ=0.3
Description: Each experiment was repeated five times.

physchem = conditions: buffer, pH 7.3, aqueous buffer
Experimental: Solubility of propranolol hydrochloride in buffer solutions at 34° C. was investigated by shaking propranolol hydrochloride suspension in the solvent. After equilibration, the saturated solutions were filtered and the concentration of propranolol in the filtrates was assayed by HPLC as described above. […] Each experiment was repeated five times.

[2] = membranes incubated at pH 7.4 or pH 9.0 propranolol hydrochloride solutions prior to device preparation
Experimental: The thickness of the membranes was 150 μm. Solid propranolol hydrochloride (2 mg) was placed without or with pH-adjusting additives (sodium phosphate/disodium phosphate in different proportions, Tris buffer) (2 mg) on a cut piece of silicone membrane. Another silicone membrane was glued on the former so that the drug and, if present, adjuvant were encapsulated inside two membranes.
Propranolol release from the devices was studied in vitro at pH 7.4 in phosphate buffer from one side of the device in side-by-side diffusion cell. The exposed drug releasing surface was 0.7 cm^2. The released propranolol was analysed using reverse phase HPLC at 254 nm.

[3] = Release of timolol from silicone microspheres (rotating bottle method); type: physicochemical; conditions: for release of timolol from silicone microspheres after 1 hour: pH 7.4, 37° C., 100 mg microspheres
Experimental: In silicone microspheres, timolol maleate was used as a model drug and sodium phosphate and Tris buffer as release-controlling adjuvants. Spray-dried drug and adjuvants were either simply mixed as power mixtures or they were spray dried together. To prepare silicone microspheres, the drug (2-20 wt %) and, if present, pH-adjusting agent (0-10 wt %) were mixed with the silicone elastomer (an amine resistant Dow Corning X7-3012 elastomer), and the curing agent was added. One part of the curing agent is mixed in ten parts of the polymer. Vulcanization of the X7-3012 elastomers is based on a platinum catalyzed addition (hydrosilylation) reaction. Two grams of the drug-polymer mixture was dispersed in 35 grams of liquid paraffin using an overhead stirrer at 190 rpm and 22° C. The temperature was raised to 50° C. in 1 hour. After 3 hours, the heating was stopped, and the mixture gradually cooled back to 22° C. […] Microparticles were separated from paraffin by filtration, washed with n-hexane and dried at room temperature. The mean particle size of the microspheres was 150±50 μm (mean±SD) (FIG. 14) and the entrapment efficiency of timolol maleate was 60-75%. Release of timolol from the silicone microspheres was studied using the rotating bottle method (NF XIV) in pH 7.4 phosphate buffer at 37° C. The volume of dissolution medium was 3 ml and the amount of microspheres 100 mg. The release timolol was analysed using reverse phase HPLC at 294 nm.

| release of timolol from silicone microspheres after 1 hour ([3]; 2 wt % drug loading) | release relative to absence of the pH-adjusting agent ([3]; 2 wt % timolol, 1 wt % Tris) | effect on release rate of adding disodium phosphate ([3]; 2 wt % timolol, 1 wt % disodium phosphate) | release of timolol from silicone microspheres after 1 hour ([3]; 20 wt % drug loading) | release relative to absence of the pH-adjusting agent ([3]; 20 wt % timolol, 10 wt % Tris) | relationship between the release of timolol and the square root of the time elapsed ([3]; pH 7.4 phosphate buffer, 37° C.) | release of timolol after 1 hour ([3]; timolol and disodium phosphate spray dried together) | Structure (SMILES) | dissolution rate, pH 7.3 versus pH 9.4 [1] | dissolution rate ([1]; pH of dissolution medium raised from 1.6 to 7.3) | rates of propranolol release, effect of osmotic pressure (138 mOsm to 950 mOsm at pH 7.4) | rates of propranolol release, effect of osmotic pressure (295 mOsm to 960 mOsm at pH=4.6) | release profile and rate of propranolol release, effect of ionic strength (ionic strength 0.15 to 0.3) | drug release rate, effect of the surrounding pH (pH 1.6, 4.6, 7.3, 9.4) | solubility (physchem) | initial lag time before steady drug release [2] |
| --- | --- | --- | --- | --- | --- | --- | --- | --- | --- | --- | --- | --- | --- | --- | --- |
|  |  |  |  |  |  |  | CC(C)NCC(O)COc1cccc2ccccc12 (stereo not drawn) [propranolol, propranolol hydrochloride] | equal | increased | remained essentially constant | remained essentially constant | independent of the ionic strength of the dissolution medium | practically unaffected by the surrounding pH | 94 mg/mL | possible to avoid the initial lag time |
| 27 µg | two times faster | did not affect the release rate | 520 µg | two times faster | linear relationship | 187 µg | CC(C)(C)NC[C@H](O)COc1nsnc1N1CCOCC1 [timolol, timolol maleate] |  |  |  |  |  |  |  |  |
